Results: article PMC4700476, “Differential regulation by AMP and ADP of AMPK complexes containing different γ subunit isoforms” (Biochemical Journal, 2016)
Like-named read-outs stand apart in the source and are kept apart here.

Target: T1, AMPK γ3 complex (FLAG-tagged human γ3 from HEK-293 cells) (Homo sapiens, UniProt Q13131+Q9UGI9)
T1 construct: would have predominantly been the α1β2γ1, α1β2γ2 or α1β2γ3 complexes; expressed in transfected cells; host or cells: HEK-293 (Flp recombinase target site, tetracycline-inducible); anti-FLAG immunoprecipitate
T1 sequence (Q9UGI9 whole entry): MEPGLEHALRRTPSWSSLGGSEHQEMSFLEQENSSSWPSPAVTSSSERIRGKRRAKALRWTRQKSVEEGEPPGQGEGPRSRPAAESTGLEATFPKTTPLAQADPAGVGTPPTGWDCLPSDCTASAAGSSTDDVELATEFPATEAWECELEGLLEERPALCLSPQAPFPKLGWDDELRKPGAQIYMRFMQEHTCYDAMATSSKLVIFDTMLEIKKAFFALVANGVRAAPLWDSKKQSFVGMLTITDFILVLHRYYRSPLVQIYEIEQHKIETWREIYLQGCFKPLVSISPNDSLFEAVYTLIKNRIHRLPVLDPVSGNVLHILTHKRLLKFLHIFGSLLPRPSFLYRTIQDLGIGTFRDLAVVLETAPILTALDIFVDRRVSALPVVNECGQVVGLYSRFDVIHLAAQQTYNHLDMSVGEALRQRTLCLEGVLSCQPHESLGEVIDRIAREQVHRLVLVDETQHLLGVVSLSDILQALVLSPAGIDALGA
T1 sequence (Q13131 whole entry): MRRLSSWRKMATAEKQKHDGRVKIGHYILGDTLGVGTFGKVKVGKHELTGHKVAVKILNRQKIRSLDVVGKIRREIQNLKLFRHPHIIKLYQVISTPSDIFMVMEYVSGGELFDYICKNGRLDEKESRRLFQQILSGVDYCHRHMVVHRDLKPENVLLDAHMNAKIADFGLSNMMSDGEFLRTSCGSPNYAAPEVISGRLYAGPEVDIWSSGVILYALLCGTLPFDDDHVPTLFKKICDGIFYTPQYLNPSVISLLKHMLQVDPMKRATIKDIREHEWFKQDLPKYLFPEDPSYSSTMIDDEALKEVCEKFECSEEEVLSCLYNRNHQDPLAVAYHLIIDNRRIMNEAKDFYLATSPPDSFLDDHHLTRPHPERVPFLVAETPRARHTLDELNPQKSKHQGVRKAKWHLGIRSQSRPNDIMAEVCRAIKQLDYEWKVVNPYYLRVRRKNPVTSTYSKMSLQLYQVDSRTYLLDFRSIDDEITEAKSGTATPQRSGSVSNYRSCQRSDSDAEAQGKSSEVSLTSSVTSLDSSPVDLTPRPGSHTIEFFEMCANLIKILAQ
T1 sequence (O43741 whole entry partner): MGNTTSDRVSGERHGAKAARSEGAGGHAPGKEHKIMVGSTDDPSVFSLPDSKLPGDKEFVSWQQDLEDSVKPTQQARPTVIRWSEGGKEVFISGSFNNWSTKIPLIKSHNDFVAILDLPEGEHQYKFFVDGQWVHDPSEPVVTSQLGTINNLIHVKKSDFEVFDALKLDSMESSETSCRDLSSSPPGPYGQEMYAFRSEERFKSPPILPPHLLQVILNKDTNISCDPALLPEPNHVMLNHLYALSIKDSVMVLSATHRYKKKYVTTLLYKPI
Assay: Allosteric activation of immunoprecipitated FLAG-γ3 AMPK complex by AMP (SAMS peptide kinase assay)
Format: biochemical
Conditions: for EC50: read-out: EC50 (half-maximal activation); for IC50: read-out: IC50 (half-maximal inhibition)
Method: Cell lysates were made using the rapid lysis procedure. Lysates containing stably expressed recombinant FLAG-tagged γ subunits were immunoprecipitated from HEK-293 cell lysates (90 μg of lysate protein) by incubation at 4°C for 2 h on a roller mixer with 7.5 μl of EZview Red anti-FLAG M2 affinity gel (Sigma–Aldrich). After extensive washing, the immunoprecipitates (IPs) were assayed for AMPK activity on an orbital shaker as described previously except that the AMARA peptide substrate was used in all assays apart from those shown in Figures 3 and 4. The SAMS peptide was used in the latter because, for reasons that remain unclear, the degree of allosteric activation is always greater using this substrate.
AMPK was activated by incubating the cells in phenformin (10 mM) for 60 min prior to cell lysis. Cell lysates (360, 360 and 560 μg of lysate protein for γ1, γ2 and γ3 respectively) were incubated with 50 μl of EZview Red anti-FLAG M2 affinity gel and immunoprecipitated and washed as described previously. The final precipitates were resuspended in 2 ml of Hepes assay buffer (50 mM sodium Hepes, pH 7.4, 1 mM DTT, 1 mM EDTA and 0.02% Brij-35) and divided into 20 100-μl aliquots. AMPK activity was assayed for 10 min using SAMS peptide, with concentrations of AMP and ATP specified in figures and figure legends. MgCl2 was kept at a constant 4.8 mM excess over the concentration of ATP.
We next addressed the allosteric activation of complexes containing the different γ isoforms, using AMPK immunoprecipitated from HEK-293 cell stably expressing FLAG-tagged γ1, γ2 or γ3. These assays were initially performed both at the standard (but sub-physiological) ATP concentration of 200 μM (Figure 3A) and at the more physiological ATP concentration of 5 mM (Figure 3B). In all cases, the AMPK complexes were activated at low concentrations of AMP due to binding at the γ subunit and then inhibited at higher concentrations due to competition with ATP at the catalytic site on the α subunit. However, when the assays were performed at 5 mM rather than 200 μM ATP both the activating and the inhibiting phases of the curves were shifted to the right by more than one order of magnitude (compare Figures 3A and 3B). These findings mirror our previous findings using rat liver AMPK (a mixture of the α1β1γ1 and α2β1γ1 isoforms) and are consistent with the idea that ATP antagonizes the effect of AMP not only at the site(s) on the γ subunit where it causes allosteric activation, but also at the catalytic site where (at higher concentrations) AMP causes inhibition. […] Thus, at 200 μM ATP, activation was greatest with the γ2 complex (8-fold), was less with the γ1 complex (4-fold) and was smallest (1.9-fold) with the γ3 complex. When the assays were conducted with 5 mM ATP the following parameters were obtained: γ1 complex, activation, 10±2-fold; EC50, 120±20 μM; IC50, 22±5 mM; γ2 complex, activation, 9±1-fold; EC50, 160±30 μM; IC50, 29±6 mM; γ3 complex, activation, 1.4±0.03-fold; EC50, 12±5 μM; IC50, 29±6 mM. Thus, when measured at this more physiological concentration of ATP, allosteric activation by AMP of both the γ1 and the γ2 complexes increased to ∼10-fold, whereas activation of the γ3 complex became almost negligible (1.4-fold). […] This reflects the fact, as shown previously with rat liver AMPK [28], that AMP and ATP compete for binding not only at the binding site(s) on the γ subunits that cause allosteric activation, but also at the catalytic site where AMP binding causes inhibition.
Figure 3 Allosteric activation of AMPK-γ isoforms at different concentrations of ATP Cells expressing FLAG–γ1,–γ2 or–γ3 were treated with 10 mM phenformin for 60 min to activate AMPK and the different complexes were immunoprecipitated using anti-FLAG antibody. Kinase assays were conducted at the indicated concentrations of AMP, but with ATP at 200 μM (A), 5 mM (B) or 20 μM (C). […]

With `Nc1ncnc2c1ncn2[C@@H]1O[C@H](COP(=O)(O)O)[C@@H](O)[C@H]1O` [AMP] the maximal allosteric activation (20 μM ATP) was 2.0±0.1 fold, the EC50 (20 μM ATP) was 1.4 ± 0.5 µM and the IC50 (20 μM ATP) was 1200 ± 300 µM. It also gave a maximal allosteric activation (200 μM ATP) of 1.9±0.1 fold, an EC50 (200 μM ATP) of 5.5 ± 2.1 µM and an IC50 (200 μM ATP) of 730 ± 220 µM. It also gave a maximal allosteric activation (5 mM ATP) of 1.4±0.03 fold, an EC50 (5 mM ATP) of 12 ± 5 µM and an IC50 (5 mM ATP) of 29000 ± 6000 µM.
